Laboratory results as given in patent US11123351B2, “Pharmaceutical formulation of 3-alpha-ethynyl-3-beta-hydroxyandrostan-17-one oxime” (priority 2017, dated 2021).
≈ marks a conversion by molar mass, not a printed value.

Assays:
[1] = Clinical Phase I single ascending dose (SAD) study, pharmacokinetics and safety; type: in vivo, human
Excerpt: (§1) In total 90 eligible healthy consenting male subjects (age 18-50 years) were included in the study. The oral formulation used was a capsule containing a lipid solution of 3α-ethynyl-3β-hydroxyandrostan-17-one oxime formulated according to Example 10 above (IND formulation in the following).
(§2) The first in human single ascending dose (SAD) study (EudraCT 2015-004911-19) and the 5 day multiple ascending dose (MAD) study (EudraCT 2016-003651-30) were prospective, randomized, double-blinded and placebo-controlled and designed to assess the safety, tolerability and pharmacokinetic (PK) characteristics of single and multiple ascending oral doses of 3α-ethynyl-3β-hydroxyandrostan-17-one oxime (IND compound) in healthy male volunteers.
(§3) The IND compound and allopregnanolone were quantified by UPLC/MS/MS Waters Acquity, C18 column, and Waters XEVO-TQ-S triple quadrupole mass spectrometer. As internal standards D4-[3α-ethynyl-3β-hydroxyandrostan-17-one oxime] and D5-allopregnanolone were used, respectively. For analysis of allopregnanolone oxime-derivatization was used to increase sensitivity. Standard- and QC-samples were prepared into human blank plasma/serum. The detection limit for 3α-ethynyl-3β-hydroxyandrostan-17-one oxime was 1 ng/mL, and for allopregnanolone 0.05 ng/ml (0.15 nmol/L).
(§4) Pharmacokinetic parameters were evaluated using Non-Compartmental Analysis and the software Phoenix WinNonlin® version 6.3 or later (Pharsight Corporation, U.S.A.). Dose proportionality was for the SAD study based on AUC0->∞ and Cmax, and in the MAD study on steady-state AUCτ. The accumulation ratio between the first and last dose was calculated as (steady-state AUCτ/first dose AUC0->∞). Statistical calculations were with IBM SPSS statistics (Version 24, IBM).

[2] = Solubility of Compound I in different vehicles (visual inspection); type: physicochemical
Experimental: The sample was heated, if required to melt the vehicle, to approx. from 15° C.-80° C. and agitated by vortex or stirrer.
Addition was continued until a clear solution was not longer obtained after mixing.
Glycerol monooleate [Cithrol GMO from Croda Health Care] was melted at 50° C. […] The sample was heated and agitated by vortex.
(0.91 g). The sample was heated to approx. 40° C. and agitated by vortex.
The sample was agitated by vortex at room temperature.
The material was stirred at least 30 minutes between each addition.
Upon completed dissolution the temperature was decreased to 30° C. and the solution was filled in hard gelatin capsules of size 0. The target fill weight was 500 mg where after the capsules were capped and kept at −20° C. for 2-3 hours before storage in refrigerator.

[3] = Solubility of 3α-ethynyl-3β-hydroxyandrostan-17-one oxime in aqueous media; type: physicochemical
[4] = Clinical Phase I 5 day multiple ascending dose (MAD) study, pharmacokinetics and safety; type: in vivo, human; settings: for AUC increase / CMax increase: multiple dose
Excerpt: as §1, §2
MAD: 50 mg once daily; 50 mg twice daily (BID), i.e. 100 mg/day; or 100 mg twice daily (BID), i.e. 200 mg/day.
as §3, §4

GABA-A receptor [5] = test: Antagonist study: allopregnanolone-induced sedation (visual analogue scale); type: in vivo, human; settings: responding subjects, VAS scores
Experimental: (§5) The antagonist study, with the purpose of evaluating the biological activity of the IND compound, (EudraCT 2015-004911-19) was randomized and placebo-controlled with a double-blind three-part cross-over design. Study subjects orally received: placebo (A); 3 mg of IND formulation (B); or 30 mg of IND formulation (C); followed 90 minutes later by an intravenous (i.v.) allopregnanolone injection (0.05 mg/kg) and repeated measurements of maximal saccadic eye velocity (SEV) (Saccadometer Plus, Ober Consulting Sp. z o.o, Poland) and sedation/somnolence (visual analogue scale graded from “Absence of sleepiness” to “Falling asleep) for three hours.

GABA-A receptor [6] = test: Antagonist study: allopregnanolone-induced decrease in maximal saccadic eye velocity (SEV); type: in vivo, human; settings: responding subjects, responsive period
Experimental: as §5

[7] = Serum allopregnanolone exposure in the antagonist study; type: in vivo, human
Experimental: as §5, §3

[8] = single dose 3 mg versus next lower dose
[9] = single dose 10 mg versus next lower dose
[10] = single dose 30 mg versus next lower dose
[11] = single dose 100 mg versus next lower dose
[12] = single dose 200 mg versus next lower dose
[13] = day 1, 100 mg BID versus next lower dose
[14] = steady-state, day 5, 100 mg BID versus next lower dose
[15] = allopregnanolone + Compound I 3 mg oral
[16] = allopregnanolone + Compound I 30 mg oral
[17] = allopregnanolone 0.05 mg/kg i.v. + placebo

In the case of `C#C[C@]1(O)CC[C@@]2(C)C(CC[C@@H]3[C@@H]2CC[C@]2(C)/C(=N/O)CC[C@@H]32)C1` (stereo partly drawn) [Compound I, 3α-ethynyl-3β-hydroxyandrostan-17-one oxime], the “Serious adverse events (SAEs) and dose-limiting toxicity” value ([1]; healthy adult males, single dose up to 200 mg) is reported as “neither serious adverse events (SAEs) nor dose-limiting toxicity was observed”, the “Dose proportionality constant β for AUC0-∞” value ([1]; human, in vivo, po, 200 mg) is reported as 1.12 and the “Dose proportionality constant β for CMax” value ([1]; human, in vivo, po, 200 mg) is reported as 1.01. The AUC(0-inf) ([1]; male, human, in vivo, 1 mg) was 67 ng·h/mL, the Cmax ([1]; male, human, in vivo, 1 mg) was 0.013 µg/mL and the AUC(0-inf) ([1]; male, human, in vivo, 3 mg) was 215 ng·h/mL. It also gave a Cmax ([1]; male, human, in vivo, 3 mg) of 0.044 µg/mL, an AUC(0-inf) ([1]; male, human, in vivo, 10 mg) of 785 ng·h/mL and a Cmax ([1]; male, human, in vivo, 10 mg) of 0.149 µg/mL. For the same molecule, the AUC(0-inf) ([1]; male, human, in vivo, 30 mg) was 2560 ng·h/mL, the Cmax ([1]; male, human, in vivo, 30 mg) was 0.464 µg/mL and the AUC(0-inf) ([1]; male, human, in vivo, 100 mg) was 11900 ng·h/mL. For the same molecule, the Cmax ([1]; male, human, in vivo, 100 mg) was 1.53 µg/mL, the AUC(0-inf) ([1]; male, human, in vivo, 200 mg) was 25800 ng·h/mL and the Cmax ([1]; male, human, in vivo, 200 mg) was 2.77 µg/mL. It also gave a Tmax ([1]; male, human, in vivo, po) of 1 to 2 h, an AUC increase [1, 8] of 3.2 fold and a CMax increase [1, 8] of 3.4 fold. For the same molecule, the AUC increase [1, 9] was 3.7 fold, the CMax increase [1, 9] was 3.4 fold and the AUC increase [1, 10] was 3.3 fold. The CMax increase [1, 10] was 3.1 fold, the AUC increase [1, 11] was 4.6 fold and the CMax increase [1, 11] was 3.3 fold. For the same molecule, the AUC increase [1, 12] was 2.2 fold, the CMax increase [1, 12] was 1.8 fold and the “Concentration that could be dissolved” value ([2]; Capric/caprylic glyceride Imwitor 742, heating temperature 60° C.) was 20000 µg/mL. For the same molecule, the “Concentration that could be dissolved” value ([2]; Capric/caprylic glyceride Imwitor 742, heating temperature 70° C.) was 40000 µg/mL, the Solubility ([2]; Example 1, Capric/caprylic glycerides, Imwitor 742, 40° C.) was 20 to 30 mg/g and the Solubility ([2]; Example 2, Glyceryl monooleate, Cithrol GMO, melted at 50° C.) was 8 mg/g. It also gave a Solubility ([2]; Example 3, Oleoyl macrogol-6 glycerides, Labrafil M1944 CS, approx. 40° C.) of 5 mg/g, a Solubility ([2]; Example 5, Propylenglycol monocaprylate type I, Capryol PGMC, room temperature) of 15 mg/g and a Solubility ([2]; Example 6, Propylenglycol monocaprylate type II, Capryol 90, room temperature) of 23 mg/g. For the same molecule, the Solubility ([2]; Example 7, Polyoxyethylene-8 caprylic/capric glycerides, Acconon MC8-2, room temperature) was 2 mg/g, the Solubility ([2]; propylene glycol monolaurate type I (Lauroglycol FCC), oil or lipid, thermodynamic from solid, Example 4, Propylenglycol monolaurate type I, Lauroglycol FCC, room temperature, read-out: Solubility) was 6000 µg/mL (≈ 18200 µM) and the Solubility ([3]; FaSSIF (fasted-state simulated intestinal fluid), fassif) was 7 µg/mL (≈ 21.2 µM). For the same molecule, the Solubility ([3]; FeSSIF (fed-state simulated intestinal fluid), fessif) was 19 µg/mL (≈ 57.7 µM), the Solubility ([3]; SGF (simulated gastric fluid), simulated gastric fluid) was 0.2 µg/mL (≈ 0.607 µM) and the Solubility ([3]; water) was 1.5 µg/mL (≈ 4.55 µM). For the same molecule, the “Serious adverse events (SAEs) and dose-limiting toxicity” value ([4]; healthy adult males, up to 100 mg every 12 hours for 5 days) was “neither serious adverse events (SAEs) nor dose-limiting toxicity was observed”, the “Increase in AUC0->∞ when the dose was doubled” value ([4]; human, in vivo) was 1.9 times and the AUC increase [4, 13] was 1.9 fold. It also gave a CMax increase [4, 13] of 1.4 fold, an AUC increase [4, 14] of 1.9 fold and a CMax increase [4, 14] of 1.6 fold. The “AUC (ΔSedation)” value (GABA-A receptor [5]; [15]) was 698 ± 332 mm × min, the “AUC (ΔSedation)” value (GABA-A receptor [5]; [16]) was 416 ± 469 mm × min and the “AUC (ΔSEV)” value (GABA-A receptor [6]; [15]) was −1592 ± 924 deg/s × min. For the same molecule, the “AUC (ΔSEV)” value (GABA-A receptor [6]; [16]) was −909 ± 798 deg/s × min.

For `CC(=O)[C@H]1CC[C@H]2[C@@H]3CC[C@H]4C[C@H](O)CC[C@]4(C)[C@H]3CC[C@]12C` [Allopregnanolone, allopregnanolone, reference compound], the “AUC (ΔSedation)” value (GABA-A receptor [5]; [17]) was 1928 ± 404 mm × min, the “AUC (ΔSEV)” value (GABA-A receptor [6]; [17]) was −3018 ± 656 deg/s × min and the Highest serum level ([7]; first study time point after i.v. injection 0.05 mg/kg, three study occasions) was 74 to 82 nM. The concentration at 10 min ([7]; human, serum, intravenous, 0.05 mg/kg, 10 min after injection, average) was roughly 80 nM.
